Results on 8 molecules are retold here after ChEMBL document CHEMBL4325915, “Synthesis of zwitterionic N-chlorohydantoins for antibacterial applications” (2018).

Common to all, as to format: functional
Assay [1] has as its system Staphylococcus aureus. The assay can be described thus: Bactericidal activity against Staphylococcus aureus ATCC 25923 assessed as reduction in bacterial colonies preincubated for 5 mins followed by bacterial plating on Luria-Bertani plates and measured after 18 to 24 hrs relative to control. Further details: concentration or dose not given beside the values.
Assay [2] relates to Staphylococcus aureus. The assay can be described thus: Bactericidal activity against Staphylococcus aureus ATCC 25923 assessed as log reduction in bacterial colonies preincubated for 5 mins followed by bacterial plating on Luria-Bertani plates and measured after 18 to 24 hrs relative to control.
In assay [3] the test system is Staphylococcus aureus. The assay can be described thus: Bactericidal activity against Staphylococcus aureus ATCC 25923 assessed as reduction in bacterial colonies preincubated for 10 mins followed by bacterial plating on Luria-Bertani plates and measured after 18 to 24 hrs relative to control. Further details: concentration or dose not given beside the values.
In assay [4] the test system is Staphylococcus aureus. The assay can be described thus: Bactericidal activity against Staphylococcus aureus ATCC 25923 assessed as log reduction in bacterial colonies preincubated for 10 mins followed by bacterial plating on Luria-Bertani plates and measured after 18 to 24 hrs relative to control.
In assay [5] the test system is Escherichia coli. The assay can be described thus: Bactericidal activity against Escherichia coli ATCC 25922 assessed as reduction in bacterial colonies preincubated for 5 mins followed by bacterial plating on Luria-Bertani plates and measured after 18 to 24 hrs relative to control. Further details: concentration or dose not given beside the values.
Assay [6] concerns Escherichia coli. The assay can be described thus: Bactericidal activity against Escherichia coli ATCC 25922 assessed as log reduction in bacterial colonies preincubated for 5 mins followed by bacterial plating on Luria-Bertani plates and measured after 18 to 24 hrs relative to control.
In assay [7] the test system is Escherichia coli. The assay can be described thus: Bactericidal activity against Escherichia coli ATCC 25922 assessed as reduction in bacterial colonies preincubated for 10 mins followed by bacterial plating on Luria-Bertani plates and measured after 18 to 24 hrs relative to control. Also on record: concentration or dose not given beside the values.
Assay [8] has as its system Escherichia coli. The assay can be described thus: Bactericidal activity against Escherichia coli ATCC 25922 assessed as log reduction in bacterial colonies preincubated for 10 mins followed by bacterial plating on Luria-Bertani plates and measured after 18 to 24 hrs relative to control.
In assay [9] the test system is Staphylococcus aureus. The assay can be described thus: Bactericidal activity against Staphylococcus aureus ATCC 25923 assessed as reduction in bacterial colonies using initial inoculum of 4 x 10^7 CFU/ml preincubated for 5 mins followed by bacterial plating on Luria-Bertani plates and measured after 18 to 24 hrs relative to control. Further details: scale not given: the % may be the effect or the level left.

Turning to `CC1(C)C(=O)N(CCC[N+](C)(C)C)C(=O)N1Cl.[Cl-]`, the Activity in assay [1] amounted to 11.8%; in assay [3], 75%; in [5] it was 42.2%; in assay [7] it was 99.3%. Besides, the “log(activity)” value in assay [2] was determined as 0.05; in [4] it was 0.6; in assay [6] it was 0.24; in [8], 2.18.

In the case of `CC1(C)C(=O)N(CCC[N+](C)(C)CC(=O)[O-])C(=O)N1Cl`, the Activity in assay [1] is listed as 34.3%; in assay [3], 100%; in [5] it was 86.7%; in assay [7], 100%; in assay [9], 15%. For the same molecule, the “log(activity)” value in assay [2] is recorded as 0.18; in assay [4] it was 6.83; in [6] it was 0.88; in [8], 6.63.

On to `CC1(C)NC(=O)N(CCO)C1=O`, for which the Activity in assay [1], in assay [3], in assay [5] and in assay [7] was 0% each time. Further, the “log(activity)” value in [2], in assay [4], in assay [6] and in assay [8] was 0 each time.

In the case of `CC1(C)NC(=O)N(CCC[N+](C)(C)CC(=O)[O-])C1=O`, the Activity in [1], in assay [3], in [5] and in [7] was 0% each time. Moreover, the “log(activity)” value in assay [2], in [4], in [6] and in assay [8] was 0 throughout.

For the molecule `CC1(C)C(=O)N(CCO)C(=O)N1Cl`, the Activity came to 100% in [1]; 100% in [3]; 100% in assay [5]; 100% in assay [7]; 99.8% in [9]. The “log(activity)” value was 6.83 in [2], 6.83 in [4], 6.63 in assay [6] and 6.63 in [8].

For `CC1(C)C(=O)N(CCC[N+](C)(C)CCCS(=O)(=O)[O-])C(=O)N1Cl`, the Activity in assay [1] amounted to 19.8%; in [3], 49.1%; in assay [5], 25.1%; in assay [7], 89.9%. Also, the “log(activity)” value in [2] is 0.1; in [4], 0.29; in assay [6], 0.13; in assay [8], 1.

For `CC1(C)NC(=O)N(CCC[N+](C)(C)CCCS(=O)(=O)[O-])C1=O`, the Activity in assay [1], in assay [3], in assay [5] and in assay [7] was 0% in each case. The “log(activity)” value in [2], in assay [4], in assay [6] and in assay [8] was 0 in each case.

Turning to `CC1(C)NC(=O)N(CCC[N+](C)(C)C)C1=O.[Cl-]`, the Activity in [1], in assay [3], in assay [5] and in assay [7] was 0% throughout. Moreover, the “log(activity)” value in assay [2], in assay [4], in [6] and in [8] was 0 throughout.
